Test results published in US20040209915A1, “Library of biphenyl derivatives” (priority 2003, published 2004).

How the values were obtained:
[1] = target: T1, human β2 adrenergic receptor (Homo sapiens, UniProt P07550); assay: Radioligand binding assay for human β2 adrenergic receptor; details: displacement of [3H]-dihydroalprenolol, CHO cell membranes
T1 construct: expressed in transfected cells

[2] = target: T2, M3 muscarinic receptor (Homo sapiens, UniProt P20309); assay: Radioligand binding assay for muscarinic receptors; details: displacement of [3H]-NMS, CHO cell membranes
T2 construct: expressed in transfected cells
Experimental: CHO cell lines stably expressing cloned human hM1, hM2, hM3 and hM4 muscarinic receptor subtypes, respectively, were grown to near confluency in HAM's F-12 media supplemented with 10% FBS and 250 μg/mL Geneticin. The cells were grown in a 5% CO2, 37° C. incubator and lifted with 2 mM EDTA in dPBS. […] For membrane preparation, cell pellets were resuspended in lysis buffer and homogenized with a Polytron PT-2100 tissue disrupter (Kinematica AG; 20 seconds×2 bursts). Crude membranes were centrifuged at 40,000×g for 15 minutes at 4° C. The membrane pellet was then resuspended with resuspension buffer and homogenized again with the Polytron tissue disrupter.

[3] = target: T1, human β2 adrenergic receptor; assay: Whole-cell cAMP Flashplate assay in CHO cell lines heterologously expressing human β2 adrenergic receptor; type: cell-based; details: CHO-K1 cells
Experimental: Cells were rinsed with PBS and detached in dPBS (Dulbecco's Phosphate Buffered Saline, without CaCl2 and MgCl2) containing 2 mM EDTA or Trypsin-EDTA solution (0.05% trypsin/0.53 mM EDTA). […] About 60,000 to 80,000 cells per well were used in this assay. Test compounds (10 mM in DMSO) were diluted into PBS containing 0.1% BSA in Beckman Biomek-2000 and tested at 11 different concentrations ranging from 100 μM to 1 pM.

[4] = target: T1, human β2 adrenergic receptor; assay: Whole-cell cAMP Flashplate assay with lung epithelial cell line (BEAS-2B) endogenously expressing human β2 adrenergic receptor; type: cell-based; details: BEAS-2B cells

T1 sequence (P07550 whole entry): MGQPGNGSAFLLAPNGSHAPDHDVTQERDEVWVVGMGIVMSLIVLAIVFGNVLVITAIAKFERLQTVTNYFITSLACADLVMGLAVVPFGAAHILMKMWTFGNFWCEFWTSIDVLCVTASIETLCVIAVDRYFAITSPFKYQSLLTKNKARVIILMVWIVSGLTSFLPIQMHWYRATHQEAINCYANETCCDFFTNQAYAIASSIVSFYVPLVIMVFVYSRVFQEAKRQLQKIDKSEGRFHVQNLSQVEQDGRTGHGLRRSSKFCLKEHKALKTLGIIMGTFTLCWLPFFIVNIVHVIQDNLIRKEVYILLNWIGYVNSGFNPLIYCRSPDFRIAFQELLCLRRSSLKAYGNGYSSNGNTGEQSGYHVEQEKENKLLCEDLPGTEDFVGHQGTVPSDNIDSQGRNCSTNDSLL
T2 sequence (P20309 whole entry): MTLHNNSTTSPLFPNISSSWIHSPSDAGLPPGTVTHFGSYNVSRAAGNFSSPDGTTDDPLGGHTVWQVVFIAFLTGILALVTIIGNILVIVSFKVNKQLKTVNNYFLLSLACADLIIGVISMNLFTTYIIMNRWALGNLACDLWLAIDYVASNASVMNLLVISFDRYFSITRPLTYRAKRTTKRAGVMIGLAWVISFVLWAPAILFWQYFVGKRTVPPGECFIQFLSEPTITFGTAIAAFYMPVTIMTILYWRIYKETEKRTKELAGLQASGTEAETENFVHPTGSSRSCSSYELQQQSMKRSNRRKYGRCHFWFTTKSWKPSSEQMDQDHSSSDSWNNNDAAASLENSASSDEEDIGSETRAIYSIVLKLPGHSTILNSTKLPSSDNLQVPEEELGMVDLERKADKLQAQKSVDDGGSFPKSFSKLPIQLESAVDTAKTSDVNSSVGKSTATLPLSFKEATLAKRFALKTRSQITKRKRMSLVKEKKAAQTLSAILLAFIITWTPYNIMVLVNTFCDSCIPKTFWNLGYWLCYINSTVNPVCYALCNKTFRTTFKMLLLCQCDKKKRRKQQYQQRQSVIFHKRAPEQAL

O=C(CCN1CCC(OC(=O)Nc2ccccc2-c2ccccc2)CC1)NCCCCCNC[C@H](O)c1ccc(O)c2[nH]c(=O)ccc12 [Example 6, Biphenyl-2-ylcarbamic Acid 1-(2-{5-[(R)-2-Hydroxy-2-(8-hydroxy-2-oxo-1,2-dihydroquinolin-5-yl)ethylamino]pentylcarbamoyl}ethyl)piperidin-4-yl Ester, Ditrifluoroacetate]
< 10 nM: Ki [1] | Ki [2] | EC50 [3] | EC50 [4]
